# According to ChEMBL document CHEMBL1156485, “Distinct structural changes in a G protein-coupled receptor caused by different classes of agonist ligands” (J Biol Chem, 2007):
# Calls of active or inactive are those of the source. No cut-off for these calls is given here.
# Legend:
# [1] = system: Muscarinic acetylcholine receptor M3 (Rattus norvegicus), P08483 [A91C,T549C]; assay: Inhibition of disulfide bond cross-linking in rat M3'(3C)-Xa receptor A91C/T549C mutant expressed in african green monkey COS7 cells at 1 mM by Western blotting; format: cell-based; conditions: COS-7
# Sequence of Muscarinic acetylcholine receptor M3 (Rattus norvegicus), P08483 [A91C,T549C] (P08483 whole entry A91C/T549C): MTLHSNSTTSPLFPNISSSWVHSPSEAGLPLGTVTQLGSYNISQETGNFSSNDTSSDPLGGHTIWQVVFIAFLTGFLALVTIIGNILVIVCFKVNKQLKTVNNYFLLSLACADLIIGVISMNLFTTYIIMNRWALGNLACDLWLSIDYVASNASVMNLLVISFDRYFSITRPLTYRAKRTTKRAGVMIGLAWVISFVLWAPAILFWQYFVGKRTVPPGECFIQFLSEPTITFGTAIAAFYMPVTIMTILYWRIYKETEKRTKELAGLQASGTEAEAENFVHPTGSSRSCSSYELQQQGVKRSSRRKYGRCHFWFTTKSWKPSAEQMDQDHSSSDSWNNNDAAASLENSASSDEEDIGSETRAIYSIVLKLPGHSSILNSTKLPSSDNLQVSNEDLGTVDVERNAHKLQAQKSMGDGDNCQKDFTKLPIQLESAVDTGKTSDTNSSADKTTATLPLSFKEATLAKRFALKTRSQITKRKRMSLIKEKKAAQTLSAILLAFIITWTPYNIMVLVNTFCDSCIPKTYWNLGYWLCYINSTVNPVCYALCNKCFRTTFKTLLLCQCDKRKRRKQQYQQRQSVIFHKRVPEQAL
# [2] = Agonist activity at rat M3'(3C)-Xa receptor expressed in african green monkey COS7 cells assessed as increase in myo-[3H]inositol hydrolysis; format: functional, cell-based; conditions: COS-7
# [3] = system: Muscarinic acetylcholine receptor M3 (Rattus norvegicus), P08483 [F92C,F550C]; assay: Inhibition of disulfide bond cross-linking in rat M3'(3C)-Xa receptor F92C/F550C mutant expressed in african green monkey COS7 cells at 1 mM by Western blotting; format: cell-based; conditions: COS-7
# Sequence of Muscarinic acetylcholine receptor M3 (Rattus norvegicus), P08483 [F92C,F550C] (P08483 whole entry F92C/F550C): as the sequence (P08483 whole entry A91C/T549C) above, with C91A, F92C, C549T, F550C counted along it
# [4] = Displacement of [3H]NMS from rat M3'(3C)-Xa receptor expressed in african green monkey COS7 cells; format: cell-based; conditions: cos-7
# COS-7 = assay: Inverse agonist activity at rat M3'(3C)-Xa receptor expressed in african green monkey COS7 cells assessed as reduction in basal inositol monophosphate accumulation at 10 uM; format: functional, cell-based
# [5] = system: Muscarinic acetylcholine receptor M3 (Rattus norvegicus), P08483 [F92C,F550C]; assay: Enhancement of disulfide bond cross-linking formation in rat M3'(3C)-Xa receptor F92C/F550C mutant expressed in african green monkey COS7 cells at 100 nM by Western blotting; format: cell-based; conditions: COS-7
# [6] = system: Muscarinic acetylcholine receptor M3 (Rattus norvegicus), P08483 [A91C,T549C]; assay: Enhancement of disulfide bond cross-linking formation in rat M3'(3C)-Xa receptor A91C/T549C mutant expressed in african green monkey COS7 cells at 100 nM by Western blotting; format: cell-based; conditions: COS-7
# [7] = system: Muscarinic acetylcholine receptor M3 (Rattus norvegicus), P08483 [A91C,T549C]; assay: Inverse agonist activity at rat M3'(3C)-Xa receptor A91C/T549C mutant expressed in african green monkey COS7 cells assessed as reduction in basal inositol monophosphate accumulation at 10 uM; format: functional, cell-based; conditions: COS-7
# [8] = system: Muscarinic acetylcholine receptor M3 (Rattus norvegicus), P08483 [A91C,T549C]; assay: Stimulation of disulfide bond cross-linking formation in rat M3'(3C)-Xa receptor A91C/T549C mutant expressed in african green monkey COS7 cells by scanning densitometry relative to control; format: cell-based; conditions: COS-7
# [9] = system: Muscarinic acetylcholine receptor M3 (Rattus norvegicus), P08483 [F92C,F550C]; assay: Stimulation of disulfide bond cross-linking formation in rat M3'(3C)-Xa receptor F92C/F550C mutant expressed in african green monkey COS7 cells by scanning densitometry relative to control; format: cell-based; conditions: COS-7
# [10] = system: Muscarinic acetylcholine receptor M3 (Rattus norvegicus), P08483 [F92C,F550C]; assay: Inverse agonist activity at rat M3'(3C)-Xa receptor F92C/F550C mutant expressed in african green monkey COS7 cells assessed as reduction in basal inositol monophosphate accumulation at 10 uM; format: functional, cell-based; conditions: COS-7
Compound,Activity [1],EC50 [2] [µM],Activity [3],Ki [4] [µM],Activity (COS-7),Activity [5],Activity [6],Activity [7],Emax [8] [%],Emax [9] [%],Activity [10]
C[N+](C)(C)CCOC(N)=O [CARBACHOL],Active,0.063,Active,23.1,,,,,,,
CN1[C@@H]2CC[C@H]1C[C@@H](OC(=O)C(CO)c1ccccc1)C2 (stereo partly specified),,,,,Active,Active,Active,,,,
C[N+]1(C)[C@@H]2C[C@@H](OC(=O)[C@H](CO)c3ccccc3)C[C@H]1[C@@H]1O[C@@H]12,,,,,Active,Active,Active,Active,244,192,Active
C[N+](C)(C)CC#CCN1CCCC1=O,Active,,Active,,,,,,,,
